We go through 34 compounds from ChEMBL document CHEMBL4765320, “Identification and optimization of piperine analogues as neuroprotective agents for the treatment of Parkinson's disease via the activation of Nrf2/keap1 pathway” (Eur J Med Chem, 2020).

Structures are written as SMILES.

This assay concerns PC-12. In words: Neuroprotective activity against H2O2-induced cytotoxicity in rat PC-12 cells assessed as cell viability at 12.5 uM pretreated for 24 hrs followed by H2O2 challenge and measured after 24 hrs by MTT assay (reference value: 52.81 +/- 6%). The class given is functional. The settings on record: time 48 hrs, read-out: Activity.
For `CCN(CC)C(=O)/C=C/c1cccs1`, the viability at 12.5 µM is 54.3%.
For `O=C(/C=C/C=C/c1ccc(N2CCOCC2)cc1)N1CCCCC1`, the viability at 12.5 µM came to 20.2%.
`O=C(/C=C/c1cccs1)N1CCCCC1`: the viability at 12.5 µM is 50.4%.
Take `CCNC(=O)/C=C/C=C/c1ccc2c(c1)OCO2`: the viability at 12.5 µM stood at 22.3%.
Regarding `CCN(CC)C(=O)/C=C/C=C/c1ccc2c(c1)OCO2`, the viability at 12.5 µM amounted to 31.4%.
In the case of `CCN(CC)C(=O)/C=C/C=C/c1cccn1C`, the viability at 12.5 µM stood at 67.8%.
Next, `COc1cccc(/C=C/C=C/C(=O)N2CCCCC2)c1`: 58.1%; `O=C(/C=C/C=C/c1ccc(-c2ccccc2)cc1)N1CCCCC1`: 15.2%; `O=C(/C=C/c1ccc(N2CCNCC2)cc1)N1CCCCC1`: 72.6%.
The result for `O=C(/C=C/c1ccc(N2CCCC2)cc1)N1CCCCC1` reads 30.6%; that for `CCNC(=O)/C=C/c1ccc(N2CCNCC2)cc1`, 42.7%; that for `CCNC(=O)/C=C/C=C/c1ccccc1OC`, 74.6%.
For `CCNC(=O)/C=C/C=C/c1ccc(O)cc1`, the viability at 12.5 µM came out at 69.1%.
Take `O=C(/C=C/C=C/c1cccs1)N1CCCCC1`: the viability at 12.5 µM was 57.9%.
Turning to `O=C(/C=C/C=C/c1ccccc1O)N1CCCCC1`, the viability at 12.5 µM is 68.8%.
In the case of `O=C(/C=C/C=C/c1ccco1)N1CCCCC1`, the viability at 12.5 µM stood at 33.3%.
Regarding `CCN(CC)C(=O)/C=C/c1ccc(N2CCNCC2)cc1`, the viability at 12.5 µM is 69.1%.
The result for `CCNC(=O)/C=C/c1cccs1` reads 56.5%; that for `CCN(CC)C(=O)/C=C/C=C/c1ccccc1OC`, 80.7%; that for `CCN(CC)C(=O)/C=C/c1ccc2c(c1)OCO2`, 71.7%.
Take `O=C(/C=C/C=C/c1ccc(N2CCCCC2)cc1)N1CCCCC1`: the viability at 12.5 µM turned out to be 18.9%.
The result for `COc1ccc(/C=C/C=C/C(=O)N2CCCCC2)cc1` reads 26.5%; that for `CC(C)(C)c1cc(O)ccc1O` [E319], 70.4%; that for `CCNC(=O)/C=C/c1ccc2c(c1)OCO2`, 69.7%.
Consider `O=C(/C=C/c1ccc2c(c1)OCO2)N1CCCCC1` [ILEPCIMIDE], for which the viability at 12.5 µM worked out at 77%.
Consider `O=C(/C=C/C=C/c1ccc(O)cc1)N1CCCCC1`, for which the viability at 12.5 µM worked out at 48.4%.
Turning to `O=C(/C=C/C=C/c1cccc(O)c1)N1CCCCC1`, the viability at 12.5 µM is 75.7%.
For `O=C(/C=C/C=C/c1ccc2c(c1)OCO2)N1CCCCC1` [PIPERINE], the viability at 12.5 µM is 55.7%.
In the case of `O=C(/C=C/C=C/c1ccc(N2CCCC2)cc1)N1CCCCC1`, the viability at 12.5 µM came out at 37.2%.
With `CCN(CC)C(=O)/C=C/c1ccc(N2CCCC2)cc1`, the viability at 12.5 µM is 26.1%.
The result for `COc1ccccc1/C=C/C(=O)N1CCCCC1` reads 81.3%.
As to `CCN(CC)C(=O)/C=C/C=C/c1ccc(O)cc1`, the viability at 12.5 µM worked out at 67.3%.
Next, `CCNC(=O)/C=C/c1ccccc1OC`: 68.5%; `CCN(CC)C(=O)/C=C/c1ccccc1OC`: 78.2%.
